According to patent US8101605B2, “SHIP1 modulators and methods related thereto” (Aquinox Pharmaceuticals Inc., priority 2009, dated 2012):

Target: T1, His-hSHIP1 enzyme (Homo sapiens, UniProt Q92835)
T1 sequence (Q92835 1-1189): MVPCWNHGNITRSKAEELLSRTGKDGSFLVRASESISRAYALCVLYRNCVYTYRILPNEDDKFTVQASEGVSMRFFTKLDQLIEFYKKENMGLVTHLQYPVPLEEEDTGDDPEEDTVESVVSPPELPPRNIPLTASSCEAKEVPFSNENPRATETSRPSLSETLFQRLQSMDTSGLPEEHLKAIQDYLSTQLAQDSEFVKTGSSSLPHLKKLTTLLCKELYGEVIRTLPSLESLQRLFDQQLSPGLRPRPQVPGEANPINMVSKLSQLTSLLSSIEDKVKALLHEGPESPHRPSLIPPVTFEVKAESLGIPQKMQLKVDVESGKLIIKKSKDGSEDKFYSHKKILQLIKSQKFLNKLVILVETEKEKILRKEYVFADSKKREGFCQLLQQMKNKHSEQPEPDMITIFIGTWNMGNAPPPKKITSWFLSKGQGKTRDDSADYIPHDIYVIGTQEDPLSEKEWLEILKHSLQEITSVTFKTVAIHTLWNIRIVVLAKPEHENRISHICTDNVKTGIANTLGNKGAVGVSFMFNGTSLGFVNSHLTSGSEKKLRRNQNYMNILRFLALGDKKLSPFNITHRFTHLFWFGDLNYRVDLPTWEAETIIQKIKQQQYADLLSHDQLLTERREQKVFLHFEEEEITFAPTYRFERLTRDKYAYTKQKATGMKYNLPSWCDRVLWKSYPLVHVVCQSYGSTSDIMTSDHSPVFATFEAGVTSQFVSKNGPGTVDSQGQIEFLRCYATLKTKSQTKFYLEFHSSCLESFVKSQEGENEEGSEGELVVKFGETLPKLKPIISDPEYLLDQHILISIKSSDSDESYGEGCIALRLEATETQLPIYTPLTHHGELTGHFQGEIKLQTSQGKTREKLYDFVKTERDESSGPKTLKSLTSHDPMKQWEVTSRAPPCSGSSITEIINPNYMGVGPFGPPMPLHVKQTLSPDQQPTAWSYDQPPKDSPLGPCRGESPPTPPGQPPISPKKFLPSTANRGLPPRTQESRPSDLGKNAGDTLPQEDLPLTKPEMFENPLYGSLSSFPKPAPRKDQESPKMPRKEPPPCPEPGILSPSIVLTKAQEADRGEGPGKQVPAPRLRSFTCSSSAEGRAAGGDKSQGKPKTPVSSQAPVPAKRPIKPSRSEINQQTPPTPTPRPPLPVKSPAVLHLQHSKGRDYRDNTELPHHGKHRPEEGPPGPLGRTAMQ
Assay: His-hSHIP1 phosphatase activity assay (IP4 substrate, Biomol Green)
Type: biochemical
Settings: percentage increase relative to background; concentrations ≦300 μM
Procedure: Test compounds were dissolved in 95% ethanol to form stock solutions. Before screening, the stock solutions were diluted with Phosphatase Assay Buffer (20 mM Tris-HCL, 10 mM MgCl2 pH 7.5, 0.02% Tween 20) to form working assay solutions that contained 10% ethanol. The assay was carried out on 96-well microtiter plates using a modified procedure of that reported by Ong et al., Blood 110, 1942-1949, 2007 and Yang et al., Org Lett 7, 1073-1076, 2005, both of which references are incorporated herein by reference in their entirety.
Each reaction contained 5 μL of His-hSHIP1 enzyme (15-20 ng), 10 μL of the substrate, 1,3,4,5-inositol tetrakisphosphate (IP4; 50 μM final), 5 μL of Phosphatase Assay Buffer, and 5 μL of test compound at various concentrations in 10% ethanol (0-300 μM final). Control blanks were also prepared by replacing His-hSHIP1 enzyme, IP4, or test compounds with Phosphatase Assay Buffer. After adding the reaction components in a 96-well microtiter plate on ice, the reaction was mixed by briefly shaking the plate vigorously. The reaction was then incubated at 37° C. for 15 min with gentle shaking followed by addition of 100 μL of Biomol Green Reagent (BIOMOL, PA, USA) to terminate the reaction. The free phosphate released from IP4 by His-hSHIP1 bound to the Biomol Green Reagent, turning the solution green in colour. After incubating the mixture for 20 min at room temperature for colour development, the absorbance was read with a SpectraMax Plus 96-well plate reader (Molecular Devices, Sunnyvale, Calif., USA) at a wavelength of 650 nm.
Percent (%) activation in Table 2 is expressed as a percentage increase relative to background. Scoring is expressed as follows: + (<50%); ++ (≧50% but <65%); +++ (≧65%).

Row | Scoring: percent (%) activation of His-hSHIP1 enzyme | SMILES
1 | +++ (≧65%) | Cc1cc(O)c2c(c1)SC[C@@H]1[C@@]3(C)CCCC(C)(C)[C@@H]3CC[C@@]21C [Compound No. 15, (1R,10R,11S,16S)-1,5,11,15,15-pentamethyl-8-thiatetracyclo[8.8.0.0^2,7.0^11,16]octadeca-2,4,6-trien-3-ol]
2 | ++ (≧50% but <65%) | COc1cc(C)c2c(c1)OC[C@@H]1[C@@]3(C)CCCC(C)(C)[C@@H]3CC[C@@]21C [Compound No. 5, (1R,10R,11S,16S)-5-methoxy-1,3,11,15,15-pentamethyl-8-oxatetracyclo[8.8.0.0^2,7.0^11,16]octadeca-2,4,6-triene]
3 | +++ (≧65%) | Cc1cc(O)c2c(c1)S(=O)(=O)C[C@@H]1[C@@]3(C)CCCC(C)(C)[C@@H]3CC[C@@]21C [Compound No. 16, (1R,10R,11S,16S)-3-hydroxy-1,5,11,15,15-pentamethyl-8-thiatetracyclo[8.8.0.0^2,7.0^11,16]octadeca-2,4,6-triene-8,8-dione]
4 | + (<50%) | CNC(=O)c1cc(C(=O)NC)c2c(c1)S(=O)(=O)C[C@@H]1[C@@]3(C)CCCC(C)(C)[C@@H]3CC[C@@]21C [compound 86, (1R,10R,11S,16S)-1,3-N,5-N,11,15,15-hexamethyl-8,8-dioxo-8λ^6-thiatetracyclo[8.8.0.0^2,7.0^11,16]octadeca-2,4,6-triene-3,5-dicarboxamide]
5 | ++ (≧50% but <65%) | COc1cc(O)c2c(c1)SC[C@@H]1[C@@]3(C)CCCC(C)(C)[C@@H]3CC[C@@]21C [Compound No. 29, (1R,10R,11S,16S)-5-methoxy-1,11,15,15-tetramethyl-8-thiatetracyclo[8.8.0.0^2,7.0^11,16]octadeca-2,4,6-trien-3-ol]
6 | + (<50%) | CC1(C)CCC[C@]2(C)[C@H]3CS(=O)(=O)c4cc(C(=O)N5CCC(C(=O)O)CC5)cc(O)c4[C@]3(C)CC[C@@H]12 [compound 98, 1-{[(1R,10R,11S,16S)-3-hydroxy-1,11,15,15-tetramethyl-8,8-dioxo-8λ^6-thiatetracyclo[8.8.0.0^2,7.0^11,16]octadeca-2,4,6-trien-5-yl]carbonyl}piperidine-4-carboxylic acid]
7 | ++ (≧50% but <65%) | CC1(C)CCC[C@]2(C)[C@H]3CS(=O)(=O)c4cc(O)cc(C(=O)O)c4[C@]3(C)CC[C@@H]12 [compound 65, (1R,10R,11S,16S)-5-hydroxy-1,11,15,15-tetramethyl-8,8-dioxo-8λ^6-thiatetracyclo[8.8.0.0^2,7.0^11,16]octadeca-2,4,6-triene-3-carboxylic acid]
8 | + (<50%) | COc1cc(O)c(CN2CCOCC2)c2c1[C@]1(C)CC[C@H]3C(C)(C)CCC[C@]3(C)[C@H]1CS2(=O)=O [compound 106, (1R,10R,11S,16S)-5-hydroxy-3-methoxy-1,11,15,15-tetramethyl-6-(morpholin-4-ylmethyl)-8^6-thiatetracyclo[8.8.0.0^2,7.0^11,16]octadeca-2,4,6-triene-8,8-dione]
9 | +++ (≧65%) | COc1cc(OC)c2c(c1)S(=O)(=O)C[C@@H]1[C@@]3(C)CCCC(C)(C)[C@@H]3CC[C@@]21C [Compound No. 23, (1R,10R,11S,16S)-3,5-dimethoxy-1,11,15,15-tetramethyl-8-thiatetracyclo[8.8.0.0^2,7.0^11,16]octadeca-2,4,6-triene-8,8-dione]
10 | ++ (≧50% but <65%) | COc1cc(O)c2c(c1)OC[C@@H]1[C@@]3(C)CCCC(C)(C)[C@@H]3CC[C@@]21C [Compound No. 39, (1R,10R,11S,16S)-5-methoxy-1,11,15,15-tetramethyl-8-oxatetracyclo[8.8.0.0^2,7.0^11,16]octadeca-2,4,6-trien-3-ol]
11 | + (<50%) | CC1(C)CCC[C@]2(C)[C@H]3CS(=O)(=O)c4cc(O)cc(C(=O)NCC(=O)O)c4[C@]3(C)CC[C@@H]12 [compound 91, 2-{[(1R,10R,11S,16S)-5-hydroxy-1,11,15,15-tetramethyl-8,8-dioxo-8λ^6-thiatetracyclo[8.8.0.0^2,7.0^11,16]octadeca-2,4,6-trien-3-yl]formamido}acetic acid]
12 | + (<50%) | CONC(=O)c1cc(O)c2c(c1)S(=O)(=O)C[C@@H]1[C@@]3(C)CCCC(C)(C)[C@@H]3CC[C@@]21C [compound 96, (1R,10R,11S,16S)-3-hydroxy-N-methoxy-1,11,15,15-tetramethyl-8,8-dioxo-8λ^6-thiatetracyclo[8.8.0.0^2,7.0^11,16]octadeca-2,4,6-triene-5-carboxamide]
13 | + (<50%) | CN1CCN(C(=O)c2cc(O)cc3c2[C@]2(C)CC[C@H]4C(C)(C)CCC[C@]4(C)[C@H]2CS3(=O)=O)CC1 [compound 94, (1R,10R,11S,16S)-5-hydroxy-1,11,15,15-tetramethyl-3-[(4-methylpiperazin-1-yl)carbonyl]-8λ^6-thiatetracyclo[8.8.0.0^2,7.0^11,16]octadeca-2,4,6-triene-8,8-dione]
14 | + (<50%) | CC1(C)CCC[C@]2(C)[C@H]3CS(=O)(=O)c4cc(O)cc(C#N)c4[C@]3(C)CC[C@@H]12 [compound 79, (1R,10R,11S,16S)-5-hydroxy-1,11,15,15-tetramethyl-8,8-dioxo-8λ^6-thiatetracyclo[8.8.0.0^2,7.0^11,16]octadeca-2,4,6-triene-3-carbonitrile]
15 | + (<50%) | CC1(C)CCC[C@]2(C)[C@H]3CSc4cc(O)cc(O)c4[C@]3(C)CC[C@@H]12 [Compound No. 26, (1R,10R,11S,16S)-1,11,15,15-tetramethyl-8-thiatetracyclo[8.8.0.0^2,7.0^11,16]octadeca-2,4,6-triene-3,5-diol]
16 | + (<50%) | COc1cc(C)cc2c1[C@]1(C)CC[C@H]3C(C)(C)CCC[C@]3(C)[C@H]1CS2 [Compound No. 14, (1R,10R,11S,16S)-3-methoxy-1,5,11,15,15-pentamethyl-8-thiatetracyclo[8.8.0.0^2,7.0^11,16]octadeca-2,4,6-triene]
17 | + (<50%) | CC1(C)CCC[C@]2(C)[C@H]3CS(=O)(=O)c4cc(O)cc(C(=O)N5CCNCC5)c4[C@]3(C)CC[C@@H]12 [compound 100, (1R,10R,11S,16S)-5-hydroxy-1,11,15,15-tetramethyl-3-[(piperazin-1-yl)carbonyl]-8λ^6-thiatetracyclo[8.8.0.0^2,7.0^11,16]octadeca-2,4,6-triene-8,8-dione]

Row | SMILES | Scoring: percent (%) activation of His-hSHIP1 enzyme
18 | COc1cc(O)c2c(c1)[C@]1(C)CC[C@H]3C(C)(C)CCC[C@]3(C)[C@H]1CO2 [Compound No. 44, (1R,10R,11S,16S)-4-methoxy-1,11,15,15-tetramethyl-8-oxatetracyclo[8.8.0.0^2,7.0^11,16]octadeca-2,4,6-trien-6-ol] | ++ (≧50% but <65%)
